Data set [1] concerns subcutaneous liver cancer syngeneic model H22. Kind of data set: In vivo efficacy study of TTI-101 ± anti-PD-1 in subcutaneous liver cancer syngeneic model H22. Also noted: species or system female BALB/c mice. The settings on record: TTI-101 1.2 mg/mouse p.o. BID*3 weeks and/or anti-PD-1 10 mg/kg i.p. BIW*3 weeks. The text has this: The objective of efficacy study was to evaluate preclinically the in vivo therapeutic efficacy of TTI-101 alone and in combination with anti-PD-1 in the treatment of subcutaneous liver cancer syngeneic model H22 in female BALB/c mice. The objective of rechallenge study was to evaluate immune memory of the female BALB/c mice previously cured from subcutaneous liver cancer syngeneic model H22 by TTI-101 combined with anti-PD-1.
Dosing volume of Anti-PD-1 (clone RMP1-14) was adjusted for body weight. The concentration of anti-PD-1 was 1 mg/mL, and dosing volume was 10 μL/g. The anti-PD-1 dosing solution was prepared by diluting 1.372 mL of anti-PD-1 (8.2 mg/mL) with 9.878 mL of PBS.
A composition of TTI-101 (72 mg/mL) dissolved in Kolliphor RH40, PEG600, Labrasol, Tween 20, and citric acid solution, was then dispersed in 1:2 water (vortexed) to form the dosing emulsion. The concentration of TTI-101 in the dosing emulsion was 24 mg/mL.
The H22 tumor cells were maintained in vitro with RPMI1640 medium supplemented with 10% fetal bovine serum (FBS) at 37° C. in an atmosphere of 5% CO2 in air. The cells in exponential growth phase were harvested and quantitated by cell counter before tumor inoculation.
In efficacy study, each mouse was inoculated subcutaneously in the right front flank region with tumor cells (1×10^6) in 0.1 ml of PBS for tumor development.
The randomization in efficacy study started when the mean tumor size reached approximately 73 mm^3 (for groups 1-5) and 96 mm^3 (for groups 6-9). Totally 82 mice were enrolled in the study and randomly allocated to 9 study groups, with 10 mice per group (groups 1-5) and 8 mice per group (groups 6-9). Randomization was performed based on “Matched distribution” method (Study Director TM software, version 3.1.399.19). The date of randomization was denoted as Day 1.
Test articles were given between 8 am-9 am then again between 4 pm-5 pm.
For group 5, TTI-101 was initiated 5 days post anti-PD-1 dosing per the request.
Tumor volumes were measured twice per week after randomization in two dimensions using a caliper, and the volume was expressed in mm^3 using the formula: V=(L×W×W)/2, where V is tumor volume, L is tumor length (the longest tumor dimension) and W is tumor width (the longest tumor dimension perpendicular to L). Dosing as well as tumor and body weight measurements were conducted in a Laminar Flow Cabinet.
Tumor growth inhibition (TGI), T/C value and Survival was applied at the endpoint.
Tumor regression (REG)=[(T0−Ti)/T0]×100%;
Tumor Growth Inhibition; TGI %=(1−Ti/Ci)*100;
Treatment/Control (T/C) value (%) is an indicator of tumor response to treatment, and one of commonly used anti-tumor activity endpoint; T and C are the mean tumor volumes of the treatment and control groups, respectively, on a given day. […]

Data set [2] is described as follows: Bioavailability and pharmacokinetics of TTI-101 following IP or PO administration. In kind it is in vivo, male Sprague-Dawley rats. The settings on record: PO 25 mg/kg vs IP 25.6 mg/kg, single dose, rats. Here is the method: Bioavailability and pharmacokinetics of TTI-101 in male Sprague-Dawley rats were evaluated following a single oral (PO) dose at 25 mg/kg (in labrasol:PEG400, 60:40% v/v) and a single intraperitoneal (IP) dose at 25.6 mg/kg (pH 7.4 PBS/propylene glycol/ethanol/DMSO, 20:70:5:5% v/v).

Where [3] appears, read: Day 21, vs vehicle+isotype group.

Regarding `COc1ccc(S(=O)(=O)Nc2cc(-c3c(O)ccc4ccccc34)c(O)c3ccccc23)cc1` [TTI-101, N-(1′,2-dihydroxy-1,2′-binaphthalen-4′-yl)-4-methoxybenzenesulfonamide], in data set [1] (setting [3]), the “T/C (%) on Day 21” value stood at 78.33% and the “TGI (%) on Day 21” value is on record as 21.67%. Moreover, the “CR Ratio (tumor complete response, tumor regressed to 0)” value in data set [1] (animals with CR / animals per group) is reported as 0/10. Also, in data set [1] (mean ± SEM, Day 21), the “Tumor volume (mm^3) (N) on Day 21” value was found to be 2073.36 mm^3. Also, in data set [2], the “greater exposure by oral administration compared to interperitoneal administration” value was found to be 90%.

Values taken from US20250170079A1, “COMBINATIONS OF STAT-INHIBITORS AND IMMUNE CHECKPOINT INHIBITORS FOR THE TREATMENT AND/OR MANAGEMENT OF CANCER” (Tvardi Therapeutics, Inc., priority 2022, published 2025).
